Holding throughout (format): cell-based
The target of one experiment is T1, SST2 (Homo sapiens, UniProt P30874).
T1 construct: host or cells: PathHunter CHO-K1 SST2 cells
Description: PathHunter CHO-K1 SST2 Internalization Assay. To be noted: PathHunter CHO-K1 SST2 cells; 90 min at 37 C; luminescence; read-out: Internalization EC50. A digest of the protocol: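 Four-parameter nonlinear fits of background-corrected luminescence (duplicate means) gave IC50s. NDCs were serially diluted 1:3 over 11 points from a 10 uM final top concentration and incubated 90 min at 37 C with human SST2 CHO-K1 cells plated 48 h earlier at 2500/well. Beta-Glo read-out developed 60 min at RT.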

For experiment [1], the system named is NCI-H524 human small cell lung cancer cells. Description: H524 assay: inhibition of cell proliferation (CellTiter Glo). To be noted: 2 h treatment, washout, additional 70 h incubation. The procedure, abridged: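 Proliferation was measured by CellTiter Glo 70 h after a washout that followed a 2 h pulse of NDC. Doses were an 11-point, two-fold dilution series from 1 uM. IC50 was fitted with a four-parameter model to luminescence-based % inhibition relative to control cells.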
A general note: ATP-based viability assays read luminescence as a measure of living cells.

Experiment [2] has as its target T2, human somatostatin receptor subtype 2 (Homo sapiens, UniProt P30874).
T2 construct: expressed in transfected cells
Description: Functional assay for SSTR2 agonists (HTRF cAMP). To be noted: CHO-K1 cells stably expressing human SST2; NKH477-stimulated cAMP; 20 min at 37 C; read-out: hSST2 cAMP Avg EC50. The procedure, abridged:
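Agonist activity read as fall in intracellular cAMP: HTRF 665/620 nm ratio regressed to a cAMP standard curve, EC50 fitted. Stable human SSTR2 CHO-K1 cells exposed 20 min at 37 °C to compound, final concentrations typically 0-10,000 nM.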
(In general: TR-FRET usually uses a lanthanide donor and a delayed reading to cut background.)

These results are taken from patent publication US20260007758A1, “SO[…]-2 RECEPTOR (SST2R) NON-PEPTIDE DRUG CONJUGATES AND USES THEREOF” (Crinetics Pharmaceuticals, Inc., priority 2024, published 2026).

T1 sequence (P30874 whole entry): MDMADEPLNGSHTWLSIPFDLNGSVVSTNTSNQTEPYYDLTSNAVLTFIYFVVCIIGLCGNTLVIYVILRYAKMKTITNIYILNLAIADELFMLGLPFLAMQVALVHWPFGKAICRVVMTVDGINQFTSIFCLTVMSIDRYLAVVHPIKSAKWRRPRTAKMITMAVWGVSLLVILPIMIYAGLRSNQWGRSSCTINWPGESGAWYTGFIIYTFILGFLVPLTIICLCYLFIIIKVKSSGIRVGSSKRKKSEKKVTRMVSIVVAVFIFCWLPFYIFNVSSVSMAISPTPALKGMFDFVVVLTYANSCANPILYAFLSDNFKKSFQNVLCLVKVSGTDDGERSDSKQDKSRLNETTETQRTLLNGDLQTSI
T2 sequence (P30874 whole entry): as above

Broadly, the EC50 is the midpoint of the concentration-response curve. In the case of `CC[C@H](C)[C@@H]([C@@H](CC(=O)N1CCC[C@H]1[C@H](OC)[C@@H](C)C(=O)N[C@H](C)[C@@H](O)c1ccccc1)OC)N(C)C(=O)[C@@H](NC(=O)[C@H](C(C)C)N(C)C(=O)OCc1ccc(NC(=O)[C@H](CCCNC(N)=O)NC(=O)[C@@H](NC(=O)CCOCCC(=O)NCCNc2ncc(-c3cc(C)cc(F)c3)c(N3CCC(N)CC3)c2-c2nc3ccc(Cl)cc3[nH]2)C(C)C)c(OCCO)c1)C(C)C` [Compound 12], the EC50 was 6.9 nM on SST2, 3.9 nM in experiment [1] and 0.24 nM in experiment [2].
In the case of `CC[C@H](C)[C@@H]([C@@H](CC(=O)N1CCC[C@H]1[C@H](OC)[C@@H](C)C(=O)N[C@H](C)[C@@H](O)c1ccccc1)OC)N(C)C(=O)[C@@H](NC(=O)[C@H](C(C)C)N(C)C(=O)OCc1ccc(NC(=O)[C@H](CCCNC(N)=O)NC(=O)[C@@H](NC(=O)CCOCCC(=O)NCCNc2ncc(-c3cc(C)cc(F)c3)c(N3CCC(N)CC3)c2-c2nc3ccc(Cl)cc3[nH]2)C(C)C)c(OCCN)c1)C(C)C` [Compound 10], the EC50 worked out at 2.7 nM at SST2, 0.76 nM in experiment [1] and 0.21 nM in experiment [2].
Consider `CC[C@H](C)[C@@H]([C@@H](CC(=O)N1CCC[C@H]1[C@H](OC)[C@@H](C)C(=O)N[C@H](C)[C@@H](O)c1ccccc1)OC)N(C)C(=O)[C@@H](NC(=O)C(C(C)C)N(C)C(=O)OCc1ccc(NC(=O)[C@H](CCCNC(N)=O)NC(=O)[C@@H](NC(=O)CCOCCC(=O)NCCNc2ncc(-c3cc(C)cc(F)c3)c(N3CCC(N)CC3)c2-c2nc3ccc(Cl)cc3[nH]2)C(C)C)c(O[C@@H]2O[C@H](C(=O)N3CCC(C(=O)O)CC3)[C@@H](O)[C@H](O)[C@H]2O)c1)C(C)C` (stereo partly drawn) [Compound 235], for which the EC50 is 4.4 nM on SST2, 14 nM in experiment [1] and 0.11 nM in experiment [2].
On the same counts, the results for `CC[C@H](C)[C@@H]([C@@H](CC(=O)N1CCC[C@H]1[C@H](OC)[C@@H](C)C(=O)N[C@H](C)[C@@H](O)c1ccccc1)OC)N(C)C(=O)[C@@H](NC(=O)[C@H](C(C)C)N(C)C(=O)OCc1ccc(NC(=O)[C@H](CCCNC(N)=O)NC(=O)[C@@H](NC(=O)c2cc(NC(=O)CCOCCOCCOCCOCCC(=O)NCCNc3ncc(-c4cc(C)cc(F)c4)c(N4CCC(N)CC4)c3-c3nc4ccc(Cl)cc4[nH]3)cc(C(=O)NCC(=O)O)c2)C(C)C)cc1)C(C)C` [Compound 150] are 8.3 nM, 53 nM and 0.083 nM.
Take `CC[C@H](C)[C@@H]([C@@H](CC(=O)N1CCC[C@H]1[C@H](OC)[C@@H](C)C(=O)N[C@H](C)[C@@H](O)c1ccccc1)OC)N(C)C(=O)[C@@H](NC(=O)[C@H](C(C)C)N(C)C(=O)OCc1ccc(NC(=O)[C@H](CCCNC(N)=O)NC(=O)[C@@H](NC(=O)CCOCCC(=O)N(C)CC(=O)NCCNc2ncc(-c3cc(C)cc(F)c3)c(N3CCC(N)CC3)c2-c2nc3ccc(Cl)cc3[nH]2)C(C)C)c(O[C@@H]2O[C@H](C(=O)NCCN(C)C)[C@@H](O)[C@H](O)[C@H]2O)c1)C(C)C` [Compound 215]: the EC50 is 7.8 nM at SST2, 5 nM in experiment [1] and 0.14 nM in experiment [2].
As for `CC[C@H](C)[C@@H]([C@@H](CC(=O)N1CCC[C@H]1[C@H](OC)[C@@H](C)C(=O)N[C@H](C)[C@@H](O)c1ccccc1)OC)N(C)C(=O)[C@@H](NC(=O)[C@H](C(C)C)N(C)C(=O)OCc1ccc(NC(=O)[C@H](CCCNC(N)=O)NC(=O)[C@@H](NC(=O)[C@H](Cc2c[nH]c3ccccc23)NC(=O)CCOCCC(=O)NCCNc2ncc(-c3cc(C)cc(F)c3)c(N3CCC(N)CC3)c2-c2nc3ccc(Cl)cc3[nH]2)C(C)C)cc1C(=O)NCCN)C(C)C` [Compound 85], the EC50 at SST2 was determined as 3.6 nM; in experiment [1] it was 73 nM; in experiment [2], 0.72 nM.
On to `CC[C@H](C)[C@@H]([C@@H](CC(=O)N1CCC[C@H]1[C@H](OC)[C@@H](C)C(=O)N[C@H](C)[C@@H](O)c1ccccc1)OC)N(C)C(=O)[C@@H](NC(=O)[C@H](C(C)C)N(C)C(=O)OCc1ccc(NC(=O)[C@H](CCCNC(N)=O)NC(=O)[C@@H](NC(=O)c2cc(C(=O)NCC(=O)O)cc(N(C)CCOCCC(=O)NCCNc3ncc(-c4cc(C)cc(F)c4)c(N4CCC(N)CC4)c3-c3nc4ccc(Cl)cc4[nH]3)c2)C(C)C)cc1)C(C)C` [Compound 158], for which the EC50 at SST2 came to 5.1 nM; in experiment [1], 40 nM; in experiment [2], 0.15 nM.
Turning to `CC[C@H](C)[C@@H]([C@@H](CC(=O)N1CCC[C@H]1[C@H](OC)[C@@H](C)C(=O)N[C@H](C)[C@@H](O)c1ccccc1)OC)N(C)C(=O)[C@@H](NC(=O)[C@H](C(C)C)N(C)C(=O)OCc1ccc(NC(=O)[C@H](CCCNC(N)=O)NC(=O)[C@@H](NC(=O)CN(C)C(=O)CCOCCC(=O)NCCNc2ncc(-c3cc(C)cc(F)c3)c(N3CCC(N)CC3)c2-c2nc3ccc(Cl)cc3[nH]2)C(C)C)c(OCC(N)=O)c1)C(C)C` [Compound 20], the EC50 on SST2 was 7 nM; in experiment [1], 29 nM; in experiment [2], 0.093 nM.
Turning to `CC[C@H](C)[C@@H]([C@@H](CC(=O)N1CCC[C@H]1[C@H](OC)[C@@H](C)C(=O)N[C@H](C)[C@@H](O)c1ccccc1)OC)N(C)C(=O)[C@@H](NC(=O)[C@H](C(C)C)N(C)C(=O)OCc1ccc(NC(=O)[C@H](CCCNC(N)=O)NC(=O)[C@@H](NC(=O)c2cc(NCCOCCC(=O)NCCNc3ncc(-c4cc(C)cc(F)c4)c(N4CCC(N)CC4)c3-c3nc4ccc(Cl)cc4[nH]3)cc(C(=O)NCCS(=O)(=O)O)c2)C(C)C)cc1)C(C)C` [Compound 187], the EC50 on SST2 worked out at 3.7 nM; in experiment [1] it was 1800 nM; in experiment [2], 0.5 nM.
As for `CC[C@H](C)[C@@H]([C@@H](CC(=O)N1CCC[C@H]1[C@H](OC)[C@@H](C)C(=O)N[C@H](C)[C@@H](O)c1ccccc1)OC)N(C)C(=O)[C@@H](NC(=O)[C@H](C(C)C)N(C)C(=O)OCc1ccc(NC(=O)[C@H](CCCNC(N)=O)NC(=O)[C@@H](NS(=O)(=O)C[C@H](C)NC(=O)CCOCCC(=O)NCCNc2ncc(-c3cc(C)cc(F)c3)c(N3CCC(N)CC3)c2-c2nc3ccc(Cl)cc3[nH]2)C(C)C)c(O[C@@H]2O[C@H](C(=O)NCC(=O)O)[C@@H](O)[C@H](O)[C@H]2O)c1)C(C)C` [Compound 214], the EC50 worked out at 4 nM at SST2, 8.9 nM in experiment [1] and 0.11 nM in experiment [2].
With `CC[C@H](C)[C@@H]([C@@H](CC(=O)N1CCC[C@H]1[C@H](OC)[C@@H](C)C(=O)N[C@H](C)[C@@H](O)c1ccccc1)OC)N(C)C(=O)[C@@H](NC(=O)[C@H](C(C)C)N(C)C(=O)OCc1ccc(NC(=O)[C@H](CCCNC(N)=O)NC(=O)[C@@H](NC(=O)CCOCCC(=O)NCCNc2ncc(-c3cc(C)cc(F)c3)c(N3CCC(N)CC3)c2-c2nc3ccc(Cl)cc3[nH]2)C(C)C)c(O[C@@H]2O[C@H](C(=O)NCCNC(=O)CCC(=O)NS(=O)(=O)c3ccc4ccccc4c3)[C@@H](O)[C@H](O)[C@H]2O)c1)C(C)C` [Compound 224], the EC50 is 3.2 nM at SST2, 27 nM in experiment [1] and 0.068 nM in experiment [2].
For the compound `CC[C@H](C)[C@@H]([C@@H](CC(=O)N1CCC[C@H]1[C@H](OC)[C@@H](C)C(=O)N[C@H](C)[C@@H](O)c1ccccc1)OC)N(C)C(=O)[C@@H](NC(=O)[C@H](C(C)C)N(C)C(=O)OCc1ccc(NC(=O)[C@H](CCCNC(N)=O)NC(=O)[C@@H](NC(=O)c2cc(NC(=O)CCOCCC(=O)N(C)CC(=O)NCCNc3ncc(-c4cc(C)cc(F)c4)c(N4CCC(N)CC4)c3-c3nc4ccc(Cl)cc4[nH]3)cc(C(=O)NC[C@@H](O)C(=O)O)c2)C(C)C)cc1)C(C)C` [Compound 244], the EC50 at SST2 amounted to 4 nM; in experiment [1], 55 nM; in experiment [2] it was 0.26 nM.
